The record followed here is patent publication US6869913B1, “Pyridazin-3-one derivatives, their use and intermediates for their production” (Sumitomo Chemical Company, Limited, priority 1995, dated 2005).

What all share (format): in vivo
Series [1] has as its system common lambsquarters (Chenopodium album). In words: Test Example 5: foliar treatment on upland fields. To be noted: 63 g/ha active ingredient; foliar spray; 18 days after application. An excerpt: (§1) The herbicidal activity is excellent when rated at “4” or “5” but insufficient when rated at “3” or lower. The phytotoxicity is no problematic on practical use when rated at “0” or “1” but not allowed when rated at “2” or higher.
(§2) Plastic pots of 25×18 cm^2 in area and 7 cm in depth were filled with soil, in which the seeds of soybean (Glycine max), corn (Zea mays), entireleaf morningglory (Ipomoea hederacea var. integriuscula), common cocklebur (Xanthium pensylvanicum), common ragweed (Ambrosia artemisiifolia), and common lambsquarters (Chenopodium album) were sowed, and the test plants were grown for 16 days. Each of the test compounds listed below was formulated into an emulsifiable concentrate according to Formulation Example 2, which was diluted with water to a prescribed concentration. The dilution was uniformly sprayed over the foliage of the test plants with a sprayer at a volume of 1000 liters per hectare. At this time, the unfavorable weeds and crop plants, although their growth state was different depending upon the weed species, were at the 1- to 4-leaf stage, and the plant height was 5 to 20 cm. After 18 days from the application, the herbicidal activity and phytotoxicity were examined. This test was made in a greenhouse over the entire period.

Series [2] has as its system common ragweed (Ambrosia artemisiifolia). In words: Test Example 5: foliar treatment on upland fields. To be noted: 63 g/ha active ingredient; foliar spray; 18 days after application.
From the text: as §1, §2

Series [3] concerns common cocklebur (Xanthium pensylvanicum). In words: Test Example 5: foliar treatment on upland fields. Conditions: 63 g/ha active ingredient; foliar spray; 18 days after application.
From the text: as §1, §2

In series [4] the test system is entireleaf morningglory (Ipomoea hederacea var. integriuscula). In words: Test Example 5: foliar treatment on upland fields. Conditions: 63 g/ha active ingredient; foliar spray; 18 days after application.
From the text: as §1, §2

Series [5] relates to barnyardgrass (Echinochloa crus-galli). In words: Test Example 2: foliar treatment on upland fields. Also noted: key: rating; 4–5 = excellent activity, 3 or lower = insufficient. Conditions: 32 g/ha active ingredient; foliar spray; examined 19 days after application.
From the text: as §1
(§3) Cylindrical plastic pots of 10 cm in diameter and 10 cm in depth were filled with soil, in which the seeds of barnyardgrass (Echinochloa crus-galli), entireleaf morningglory (Ipomoea hederacea var. integriuscula) and velvetleaf (Abutilon theophrash) were sowed, and the test plants were grown in a greenhouse for 19 days. Each of the test compounds listed below was formulated into an emulsifiable concentrate according to Formulation Example 2, which was diluted with water containing a spreading agent to a prescribed concentration. The dilution was uniformly sprayed over the foliage of the test plants with a sprayer at a volume of 1000 liters per hectare. After the application, the test plants were grown in the greenhouse for 19 days, and the herbicidal activity was examined.

Series [6] deals with velvetleaf (Abutilon theophrash). In words: Test Example 2: foliar treatment on upland fields. Conditions: 32 g/ha active ingredient; foliar spray; examined 19 days after application. Also on record: key: rating; 4–5 = excellent activity, 3 or lower = insufficient.
From the text: as §1, §3

In series [7] the test system is entireleaf morningglory (Ipomoea hederacea var. integriuscula). In words: Test Example 2: foliar treatment on upland fields. Also on record: key: rating; 4–5 = excellent activity, 3 or lower = insufficient. To be noted: 32 g/ha active ingredient; foliar spray; examined 19 days after application.
From the text: as §1, §3

Series [8] has as its system velvetleaf (Abutilon theophrash). In words: Test Example 1: foliar treatment on upland fields. To be noted: 500 g/ha active ingredient; foliar spray; examined 19 days after application. The procedure: as §3, with “barnyardgrass (Echinochloa crus-galli), entireleaf morningglory” left out
For series [9], the system named is entireleaf morningglory (Ipomoea hederacea var. integriuscula). In words: Test Example 1: foliar treatment on upland fields. Conditions: 500 g/ha active ingredient; foliar spray; examined 19 days after application. The procedure:
as §3, with “barnyardgrass (Echinochloa crus-galli), entireleaf morningglory” left out

The subject of series [10] is velvetleaf (Abutilon theophrash). In words: Test Example 3: soil surface treatment on upland fields. Conditions: 500 g/ha active ingredient; soil surface spray; examined after 19 days. On the procedure: (§4) Cylindrical plastic pots of 10 cm in diameter and […] in depth were filled with soil, in which the seeds of […] (Ipomoea hederacea var. integriuscula) and velvetleaf (Abutilon theophrash) were sowed. Each of the test compounds listed below was formulated into an emulsifiable concentrate according to Formulation Example 2, which was diluted with water to a prescribed concentration. The dilution was uniformly sprayed over the soil surface in the pots with a sprayer at a volume of 1000 liters per hectare. After the application, the test plants were grown in a greenhouse for 19 days, and the herbicidal activity was examined.

Series [11] concerns entireleaf morningglory (Ipomoea hederacea var. integriuscula). The series is described as above. Conditions: 500 g/ha active ingredient; soil surface spray; examined after 19 days. On the procedure:
as §4

Series [12] concerns barnyardgrass (Echinochloa oryzicola). In words: Test Example 4: flooding treatment on paddy fields. To be noted: application amount of active ingredient 250 g/ha, examined 19 days after application, index 0 to 5. On the procedure:
Cylindrical plastic pots of 9 cm in diameter and 11 cm in depth were filled with soil, in which the seeds of barnyardgrass (Echinochloa oryzicola) were sowed. These pots were flooded to form a paddy field, and the test plants were grown in a greenhouse for 7 days. Each of the test compounds listed below was formulated into an emulsifiable concentrate according to Formulation Example 2, which was diluted with water to a prescribed concentration. The dilution was applied to the water surface in the pots at a volume of 50 liters per hectare. After the application, the test plants were grown in the greenhouse for 19 days, and the herbicidal activity was examined.

In the next series the test system is soybean (Glycine max). In words: Test Example 5: foliar treatment on upland fields (phytotoxicity). Conditions: 63 g/ha active ingredient; foliar spray; 18 days after application.
From the text: as §1, §2

In another series the test system is corn (Zea mays). Described as above. To be noted: 63 g/ha active ingredient; foliar spray; 18 days after application.
From the text: as §1, §2

On to “Pentyl 2-chloro-4-fluoro-5-(4-methyl-5-trifluoromethyl-3-pyridazinon-2-yl) phenoxyacetate [Compound 1-499]”, for which the “Herbicidal activity and phytotoxicity Common lambsquarters” value in series [1] was found to be 4. Moreover, the “Herbicidal activity and phytotoxicity Common ragweed” value in series [2] was found to be 5. The “Herbicidal activity and phytotoxicity Common cocklebur” value in [3] was found to be 5. Also, the “Herbicidal activity and phytotoxicity Entireleaf morningglory” value in [4] is 5. In addition, the “Herbicidal activity Barnyardgrass” value in [5] and in series [12] was 5 each time. For the same substance, the “Herbicidal activity Velvetleaf” value in series [6], in series [8] and in series [10] was 5 throughout. The “Herbicidal activity Entireleaf morningglory” value in series [7], in series [9] and in series [11] was 5 in each case. The “Herbicidal activity and phytotoxicity Soybean” value in the series on soybean (Glycine max) is 1. The “Herbicidal activity and phytotoxicity Corn” value with corn (Zea mays) is recorded as 1.
